Source: patent US6677429B1, “Echinocandin derivatives, preparation method and application as anti-fungal agents” (Aventis Pharma S.A., priority 1997, dated 2004)

Each molecule was assayed against T1, Glucane Synthesis of Candida albicans (Candida albicans, UniProt O13428) (assay: Inhibition of the Glucane Synthesis of Candida albicans). Conditions: purified Candida albicans membranes, 14C-UDP glucose, 25° C. for 1 hour, radioactivity on filter counted.
T1 construct: 22.5 µg of membrane proteins are incubated in a mixture of 2 Mm of 14C-UDP glucose; endogenous in cells
T1 sequence (O13428 1-1897): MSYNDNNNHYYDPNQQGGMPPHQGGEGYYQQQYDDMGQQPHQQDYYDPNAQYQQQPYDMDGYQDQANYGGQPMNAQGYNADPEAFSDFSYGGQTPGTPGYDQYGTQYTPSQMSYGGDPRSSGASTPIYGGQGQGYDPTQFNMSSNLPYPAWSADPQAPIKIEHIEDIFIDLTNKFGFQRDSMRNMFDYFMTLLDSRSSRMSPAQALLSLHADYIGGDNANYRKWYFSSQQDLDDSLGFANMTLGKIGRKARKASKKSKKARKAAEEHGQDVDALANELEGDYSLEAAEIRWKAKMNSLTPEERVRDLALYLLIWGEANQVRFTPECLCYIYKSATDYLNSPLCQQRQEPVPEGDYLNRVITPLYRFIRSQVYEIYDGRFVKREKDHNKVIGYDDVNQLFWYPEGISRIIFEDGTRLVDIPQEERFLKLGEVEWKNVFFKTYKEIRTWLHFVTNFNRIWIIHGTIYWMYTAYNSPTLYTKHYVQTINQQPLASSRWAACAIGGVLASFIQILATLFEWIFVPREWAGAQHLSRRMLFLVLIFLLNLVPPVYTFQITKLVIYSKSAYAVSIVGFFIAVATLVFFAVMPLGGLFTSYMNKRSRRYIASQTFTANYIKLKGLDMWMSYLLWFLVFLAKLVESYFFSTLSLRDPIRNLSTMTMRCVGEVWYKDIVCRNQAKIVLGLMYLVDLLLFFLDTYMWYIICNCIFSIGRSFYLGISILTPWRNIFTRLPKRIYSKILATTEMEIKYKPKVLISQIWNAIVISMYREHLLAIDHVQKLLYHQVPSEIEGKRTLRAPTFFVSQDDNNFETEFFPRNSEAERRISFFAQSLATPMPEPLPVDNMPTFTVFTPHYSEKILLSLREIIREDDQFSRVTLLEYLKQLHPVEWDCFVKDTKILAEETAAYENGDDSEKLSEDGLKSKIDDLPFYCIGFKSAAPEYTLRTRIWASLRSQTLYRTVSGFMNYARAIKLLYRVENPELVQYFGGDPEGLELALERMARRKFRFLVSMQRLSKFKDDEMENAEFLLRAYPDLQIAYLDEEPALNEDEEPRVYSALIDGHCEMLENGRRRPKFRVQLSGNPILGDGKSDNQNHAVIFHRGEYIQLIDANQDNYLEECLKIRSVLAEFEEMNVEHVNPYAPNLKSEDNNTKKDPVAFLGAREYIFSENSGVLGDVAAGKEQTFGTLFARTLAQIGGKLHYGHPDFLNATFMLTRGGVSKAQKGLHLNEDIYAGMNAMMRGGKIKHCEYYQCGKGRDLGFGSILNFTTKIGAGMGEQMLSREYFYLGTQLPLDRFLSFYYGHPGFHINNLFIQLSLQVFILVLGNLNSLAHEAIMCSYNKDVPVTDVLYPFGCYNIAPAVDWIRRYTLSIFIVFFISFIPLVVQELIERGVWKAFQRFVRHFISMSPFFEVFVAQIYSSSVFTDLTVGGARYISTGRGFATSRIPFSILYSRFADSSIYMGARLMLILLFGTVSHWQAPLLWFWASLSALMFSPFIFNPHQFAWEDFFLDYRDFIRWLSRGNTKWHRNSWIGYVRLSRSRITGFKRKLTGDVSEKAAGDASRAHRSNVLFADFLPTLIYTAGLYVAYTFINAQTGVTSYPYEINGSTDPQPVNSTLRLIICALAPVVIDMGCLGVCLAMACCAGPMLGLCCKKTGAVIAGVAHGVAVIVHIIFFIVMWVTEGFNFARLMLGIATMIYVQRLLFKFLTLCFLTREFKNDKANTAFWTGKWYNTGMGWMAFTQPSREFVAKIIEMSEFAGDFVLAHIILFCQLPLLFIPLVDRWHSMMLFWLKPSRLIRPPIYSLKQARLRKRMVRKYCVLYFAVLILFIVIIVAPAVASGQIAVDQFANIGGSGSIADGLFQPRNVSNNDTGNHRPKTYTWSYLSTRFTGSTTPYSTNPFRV
T1 sequence (O42825 whole entry partner): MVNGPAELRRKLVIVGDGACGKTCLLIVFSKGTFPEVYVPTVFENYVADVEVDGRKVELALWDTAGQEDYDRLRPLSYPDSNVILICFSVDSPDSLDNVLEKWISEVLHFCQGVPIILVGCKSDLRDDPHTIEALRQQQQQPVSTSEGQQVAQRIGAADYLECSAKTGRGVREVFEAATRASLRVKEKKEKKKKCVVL
Type: biochemical
Protocol: A—Inhibition of the Glucane Synthesis of Candida albicans.
The membranes of Candida albicans are purified according to the process described by Tang and al Antimicrob. Agents Chemother 35, 99-103, 1991. 22.5 µg of membrane proteins are incubated in a mixture of 2 Mm of 14C-UDP glucose (specific activity=0.34mCi./mmol, 50 μg of α-amylase, 1Mm of dithiotreitol (DTT), 1Mm EDTA, 100 Mm NaF, 7 μM of GTP-γ-S, 1M of sucrose and 5 oMm OF Ttris-HCL (pH 7.8) in a volume of 100 μl. The medium is incubated at 25° C. for 1 hour and the reaction terminated by addition of TCA to a final concentration of 5%. The reaction medium is transferred onto a pre-humidified glass fibre filter. The filter is washed, dried and its radioactivity is counted.
Mulundocandin is used as positive control.
The control of the medium is carried out with the same quantity of DMSO 1%.
For “Trifluoroacetate of 1-[4-[(2-Aminoethyl)amino]-N2-(12-methyl-1-oxotetradecyl)-L-ornithine]4-[4-(4-hydroxyphenyl)-L-threonine]-5-L Serine Echinocandin B (Isomer A and Isomer B) [Example 9]”, the “Inhibition of the Glucane Synthesis of Candida albicans (activity in this test)” value (“Inhibition” for short) was “good activity”. In the case of “(±) Trifluoroacetate of 1-[4-[(Aminoiminomethyl) hydrazono]-N2-(12-methyl-1-oxotetradecyl)-L-ornithine]4-[4-(4-hydroxyphenyl)-L-threonine]-5-L Serine Echinocandin B [Example 11]”, the “Inhibition” value is reported as “good activity”. With `CCCCCCCCOc1ccc(-c2ccc(C(=O)NC3CC(NCCN)CNC(=O)C4C(O)C(C)CN4C(=O)C(CO)NC(=O)C(C(O)Cc4ccc(O)cc4)NC(=O)C4CC(O)CN4C(=O)C(C(C)O)NC3=O)cc2)cc1.O=C(O)C(F)(F)F` (single isomer, unassigned; isomer a) [Example 14, Trifluoroacetate of 1-[4-[(2-Aminoethyl)amino]N2-[[4′-(octyloxy)[1.1′-biphenyl]4-yl]carbonyl]-L-ornithine]4-[4-(4-hydroxyphenyl)-L-threonine]-5-L Serine Echinocandin B (Isomer A)] the “Inhibition” value was “good activity”.
